Here are results for two molecules from US20170240864A1, “METHODS TO GENERATE PANCREATIC BETA CELLS FROM SKIN CELLS” (UNIVERSITY OF IOWA RESEARCH FOUNDATION, priority 2016, published 2017).

Experiment [1] relates to ND iPS cells. The experiment in a line: Insulin flow cytometry at end of Stage 5, ND cultures. It is filed as cell-based, human. How it is done: (§1) FIGS. 18A-18B. […] To address whether demethylation enhances the yield of Pdx1+ cells and insulin+ cells from ND iPS cells, in parallel, differentiations of ND iPS cells, treated with or without 10 nM 5-aza-DC for 18 h on day 4 of differentiation (n=2) were established. Controls for staining were iPS cells (negative) and βTC3 mouse insulinoma cells (positive). […] Thus, demethylation enhances the differentiation into IPCs of specifically T1D iPS cells but not ND iPS cells. This is likely because there are specific gene loci on T1D cells that are aberrantly methylated, which is corrected by transient 5-aza-DC treatment.
(§2) For assessment of expression of pancreatic hormones insulin and glucagon, matrigel-seeded differentiating cell clusters on differentiation D27 (end of stage 5) were recovered by treatment with Dispase (Catalog Number: 354235, BD Biosciences, San Jose, Calif.) for 5 minutes at 37° C., followed by gentle suspension to further break down the matrigel. After washing with 1×PBS and centrifugation, the cell clusters were incubated with TrypLE Express for 5-10 minutes at room temperature. Following gentle resuspension and centrifugation, the cells were permeabilized via saponin using the BD Cytofix/Cytoperm Kit (Catalog Number: 554714, BD Biosciences, San Jose, Calif.). […]
For orientation: In flow cytometry, cells or beads pass a laser one at a time.

Experiment [2] relates to T1D iPS cell-derived cell clusters. The experiment in a line: Cluster morphology and dithizone staining of T1D IPC cultures. The class given is cell-based, human. How it is done: Freshly prepared dithizone solution was used for all experiments. First, 20 mg of dithizone (Catalog Number: D5130, Sigma-Aldrich, St. Louis, Mo.) was added to 0.6 mL of 95% ethanol in a 15 mL conical tube. Subsequently, 1-5 drops of ammonium hydroxide was added and the resulting orange stock mixture was vortexed thoroughly until completely dissolved. 0.3 mL of this stock solution was dispensed in 99.7 mL of 1×PBS and the pH was adjusted to 7.4 with 1N HCl. Islets (supplied by the IIDP) or picked IPC clusters were added to separate wells each containing 200 μL of the final dithizone solution in a 96 well plate. The cell clusters were incubated for 2-5 minutes before images were captured using a standard light microscope (Nikon Eclipse, TS100) attached to a color camera.
A full differentiation of T1D iPS cells into IPCs was initiated, demethylating the DE cells on day 4 for 18 hours before transferring them onto matrigel. A striking impact of the demethylation treatment in the T1D cultures was observed. Typically, T1D iPS cells gave rise to a disorganized mix of cysts and spheroids, with a dominant presence of hollow cysts. […] Next, these cell clusters were stained with dithizone, which when positive points to the presence of insulin Shiroi et al., 2002).

Experiment [3] has as its system T1D iPS cells differentiating into DE cells. Put plainly: Definitive endoderm marker flow cytometry after demethylation (CXCR4, Sox17, PDGFR-α). The class given is cell-based, human. From the text:
FIG. 15. Demethylation on DO of differentiation arrests cells in a CXCR4+ PDGFRα+ Sox17− mesendodermal state. In order to identify the optimal time point at which demethylation should be initiated, two parallel differentiations of T1D iPS cells into DE cells were established. In one differentiation, the culture was exposed to 5-aza-DC on day 0 (which is the day that DE differentiation is initiated), whereas the other culture was demethylated at day 4 of differentiation (which is the last day of DE culture). At the end of the differentiations, the efficacy of DE cell differentiation was determined by studying the expression of CXCR4, PDGFR-α, and Sox17. Undifferentiated iPS cells (red plot) served as a negative control for all of these cell markers. […] In contrast, demethylation of the cells on day 4 (blue plot) generated >90% CXCR4+ Sox17+ PDGFR-α− cells, representing true DE cells. […] Besides, after formation of the DE, the cells have a higher proliferative rate. Thus, temporal control of the demethylation treatment ensures enhanced differentiation outcomes.
(§3) After completing 4 days of differentiation in DE differentiation media, the cells were treated with fresh media supplemented with 5-aza-DC. The 5-aza-DC was treated for 18 hours, which spanned the last day of DE differentiation, before being washed with warm DMEM F/12 three times and harvested as described in the next section for initiating 3D differentiation into pancreatic precursor cells.
For assessment of DE differentiation efficiency, cells from D5 of differentiation (end of stage 1) were incubated at room temperature for 2-5 minutes with TrypLE Express (Invitrogen, Grand Island, N.Y.), dissociated into a single cell suspension, filtered through a 70 μm mesh and washed with 1×PBS (Invitrogen, Grand Island, N.Y.) before being distributed into FACS tubes. […]

Experiment [4] relates to ND iPS cells. Put plainly: Pdx1 flow cytometry, ND cultures. It is filed as cell-based, human. The note with it: 10 nM for 18 h on day 4. How it is done:
as §1
as §2, with “transcription factors (Pdx1, Nkx6.1” for “hormones insulin”, “NeuroD1),” for “glucagon,”, “D15” for “D27”, “4)” for “5)”, “permeabilized” for “permeabilized via saponin”, “methanol as described below.” for “the BD Cytofix/Cytoperm Kit (Catalog Number: 554714, BD Biosciences, San Jose, Calif.).”

Experiment [5] deals with T1D DE cells (T1D iPS cell-derived). The experiment in a line: Pdx1 flow cytometry at end of Stage 4, T1D cultures. It is filed as cell-based, human. To be noted: T1D DE cells demethylated on day 4 for 18 h. How it is done: as §3
For assessment of expression of pancreatic transcription factors (Pdx1, Nkx6.1 and NeuroD1), matrigel-seeded differentiating cell clusters on differentiation D15 (end of stage 4) were recovered by treatment with Dispase (Catalog Number: 354235, BD Biosciences, San Jose, Calif.) for 5 minutes at 37° C., followed by gentle suspension to further break down the matrigel. After washing with 1×PBS and centrifugation, the cell clusters were incubated with TrypLE Express for 5-10 minutes at room temperature. Following gentle resuspension and centrifugation, the cells were permeabilized using methanol as described below. The cells were fixed in 2% paraformaldehyde in PBS for 10 minutes at 37° C., followed by centrifugation, and resuspension of the vortexed cells in 1 mL of chilled Perm Buffer III (Catalog Number: 558050, BD Biosciences, San Jose, Calif.). The cells were incubated for 30 minutes on ice in sealed tubes. […]

Experiment [6] deals with 5-methylcytosine content of gDNA of T1D iPS cells. Put plainly: Dot blot for 5-methylcytosine on gDNA. The class given is cell-based, human. Here is the method: FIGS. 14A-14B. Selection of the optimal dose of 5-aza-DC to demethylate iPS cells while ensuring maximal cell viability. FIG. 14A) Every cell type has a unique tolerance to 5-aza-DC, which is toxic at high doses. In order to identify an optimal dose of 5-aza-DC that would maintain integrity of the cells while demethylating effectively, a dose screen experiment was conducted on T1D iPS cells (n=2), observing the quality of the colonies and degree of cell death over 4 days after 18 hours of treatment with various doses of 5-aza-DC. […] FIG. 14B) To confirm that those low doses would still demethylate cells, a dot blot for 5-methylcytosine was performed on gDNA isolated from untreated T1D iPS cells or iPS cells that were treated with 1 nM or 10 nM 5-aza-DC (n=3).
To detect the effectiveness of demethylation treatment, dot blots were performed on genomic DNA (gDNA) samples isolated from demethylated and nondemethylated control iPS cells to determine levels of 5-methylcytosine (5-MC). gDNA was isolated using the DNeasy Blood & Tissue Kit (Qiagen, Valencia, Calif.). […] Finally, HRP signal was detected with a 5 minute incubation at room temperature in Amersham ECL Prime solution (Catalog Number: RPN2232, GE Healthcare, Pittsburgh, Pa.) and processed via X-ray films.

Experiment [7] relates to T1D DE cells (T1D iPS cell-derived). Put plainly: Insulin and glucagon flow cytometry at end of Stage 5, T1D cultures. It is filed as cell-based, human. The note with it: for number of glucagon-expressing cells: T1D cultures, concentration-dependent. How it is done: as §3
For assessment of expression of pancreatic hormones insulin and glucagon, matrigel-seeded differentiating cell clusters on differentiation D27 (end of stage 5) were recovered by treatment with Dispase (Catalog Number: 354235, BD Biosciences, San Jose, Calif.) for 5 minutes at 37° C., followed by gentle suspension to further break down the matrigel. After washing with 1×PBS and centrifugation, the cell clusters were incubated with TrypLE Express for 5-10 minutes at room temperature. Following gentle resuspension and centrifugation, the cells were permeabilized via saponin using the BD Cytofix/Cytoperm Kit (Catalog Number: 554714, BD Biosciences, San Jose, Calif.). For insulin staining, the cells were incubated with anti-inulin-PE for 30 minutes in the dark at room temperature before being washed and resuspended in 1×PBS for flow cytometric analysis. For glucagon staining, the cells were incubated with purified rabbit anti-human glucagon for 30 minutes in the dark at room temperature before being washed and incubated with anti-rabbit APC (1:100) for an additional 30 minutes in the dark at room temperature. Subsequently, the cells were washed and resuspended in 1×PBS for flow cytometric analysis.

Experiment [8] has as its system Human iPS cell-derived IPCs. Put plainly: Mitochondria stress test (oxygen consumption rate). The class given is cell-based. To be noted: low glucose (2.8 mM). Here is the method: Oxygen consumption rate (OCR) was measured by using an intact-cell respirometer designed for adherent cells (Seahorse Bioscience, North Billerica, Mass.). Human iPS cell-derived IPCs were grown in special 24-well plates designed for respirometer analyses. OCR was determined in assay medium consisting of medium M199 lacking sodium bicarbonate for 60 minutes. Before analysis, IPCs within individual wells were exposed to either, low glucose (2.8 mM), high glucose (20 mM), high glucose (20 mM)+Nifedipine. […] The FCCP concentration used in these studies was determined by titration with differing amounts of the uncoupler by using the least amount required for maximal uncoupling in cells unexposed to MTQAs. OCR (pmol per minute per microgram of DNA) was determined as the average number recorded during time periods defined as intervals between the above sequential injections. Basal OCR was determined as respiration before injection of any compounds minus non-mitochondrial OCR. OCRATP was determined as basal OCR minus OCR after oligomycin injection. OCR accountable by the proton leak was calculated as OCR in the presence of oligomycin minus non-mitochondrial OCR. Maximal uncoupled respiration was calculated as OCR after FCCP minus non-mitochondrial OCR. […] ECAR was quantified simply as the recorded acidification rate during the respiratory conditions delineated above.

Setting [9] is: demethylation on day 4 of differentiation.

SMILES strings stand for the structures. Entries after “also recorded” stand apart in the source; their conditions may differ.

Consider `Nc1ncn([C@H]2C[C@H](O)[C@@H](CO)O2)c(=O)n1` [5-aza-DC, 5-aza-2′-deoxycytidine], for which the “yield of insulin-expressing cells, treated versus untreated” value in experiment [1] (10 nM for 18 h on day 4) is “equivalent yield”. Also, the “yield of Insulin+ cells at the end of Stage 5” value in experiment [1] (unchanged after treatment) is recorded as 25%. Moreover, the cluster morphology result in experiment [2] (T1D DE cells treated on day 4, both doses (1 nM, 10 nM)) is reported as “promoted the formation of compact cell clusters that uniquely resembled human islets; also recorded: promotes the formation of compact clusters”. Moreover, the “dithizone staining of clusters” value in experiment [2] (T1D cultures treated with 5-aza-DC) was “strong red color”. The “marker phenotype of resulting cells” value in experiment [3] (demethylation on day 0 of differentiation) is on record as “arrested in the immature CXCR4^+ PDGFRα^+ Sox17^− mesendodermal state; also recorded: CXCR4+ PDGFR-α+ Sox17−”; in experiment [3] (setting [9]), “pure population of CXCR4^+ Sox17^+ PDGFRα^− DE cells”. Also, in experiment [3] (setting [9]), the “CXCR4+ Sox17+ PDGFR-α− cells” value is greater than 90%. Moreover, the “yield of Pdx1+ cells, treated versus untreated” value in experiment [4] is listed as “not significantly different”. Moreover, in experiment [5], the “Pdx1+ cells at the end of Stage 4” value is reported as greater than 95%. In addition, the “demethylation (5-methylcytosine dot blot)” value in experiment [6] (1 nM) and in experiment [6] (10 nM) was “effectively demethylate” throughout. In addition, the insulin-expressing cells in experiment [7] (T1D cultures treated with 5-Aza-DC, n=5) is 56.7-59.4%. Further, the “number of glucagon-expressing cells” value is given as “nearly all the glucagon secreting cells are gone” in experiment [7] and “drastic decline” in experiment [7] (listed as 5-Aza-DC). In experiment [7] (T1D, 10 nM, repeated experiments), the “insulin+ cells, highest measured in some cultures” value is listed as no more than 65%. In addition, the cells expressing insulin in experiment [7] (T1D, dose of 10 nM) came out at 56%. The “augmentation of yield of IPCs versus untreated” value in experiment [7] (T1D-1 DE cells, pooled experiments, untreated n=3, demethylated n=5) is given as roughly 4 fold.

Turning to `CC(C)Cn1c(=O)n(C)c(=O)c2[nH]cnc21` [IBMX, 3-isobutyl-1-methylxanthine], the “effect on oxygen consumption” value in experiment [8] is “could not be increased; also recorded: could not be elevated”.
